Laboratory results from patent US10080751B2, “Systems and methods for treating bacterial infection” (priority 2016, dated 2018).
Values after ≈ are worked out from the molar mass of the structure shown. Like-named read-outs stand apart in the source and are kept apart here.

Tests used:
[1] = test system: S. aureus; conditions: worldwide surveillance studies; cited from earlier work
[2] = test system: isolated rabbit Purkinje fibers
[3] = test system: methicillin-resistant Staphylococcus aureus (MRSA) isolates; assay: Broth microdilution MIC against MRSA nonsusceptible to daptomycin, linezolid or vancomycin; format: cell-based
Procedure: Antibacterial susceptibility testing was conducted on a range of MRSA strains and isolates with varying susceptibilities to several recognized antistaphylococcal antibiotics. Susceptibility testing was performed by broth microdilution in accordance with the Clinical and Laboratory and Standards Institute (CLSI) guidelines. Minimum inhibitory concentrations (MICs) were based on CLSI criteria.

[4] = test system: E. faecalis; assay: MIC with/without bovine pulmonary surfactant, E. faecalis; format: cell-based, Enterococcus faecalis; conditions: for MICRZ, Resazurin: +BPS: 2.5% v/v BPS; for MICRZ, Resazurin: no BPS
Procedure: (§1) Clinical isolates were identified by the submitting laboratories and confirmed by JMI Laboratories using standard bacteriologic algorithms and methodologies, including Matrix-Assisted Laser Desorption Ionization-Time Of Flight Mass Spectrometry (MALDI-TOF MS). When necessary, MALDI-TOF MS was performed using the Bruker Daltonics MALDI Biotyper (Billerica, Mass., USA), following manufacturer's instructions. Isolates selected were bacterial species commonly associated with pneumonia. […] 2.2 Susceptibility testing
(§2) Antibacterial susceptibility testing was measured by JMI Labs (North Liberty, Iowa, USA). […] These clinical isolates were collected from US (n=4), Mexico (n=2), and Italy (n=1). Susceptibility testing was performed by broth microdilution in accordance with the Clinical and Laboratory and Standards Institute (CLSI) guidelines M07-A10 (2015) and the standard operating procedures at JMI laboratories. Minimum inhibitory concentrations (MICs) were based on CLSI criteria (2015). There are no published breakpoints for iclaprim. E. coli, K. pneumoniae, M. catarrhalis, E. faecalis, and S. aureus were tested in cation-adjusted Mueller-Hinton broth (CA-MHB). S. pneumoniae were tested in CA-MHB supplemented with 2.5-5% lysed horse blood, and H. influenza were tested in Haemophilus test medium. Quality control and interpretation of results were performed in accordance with CLSI M100-S26 (2016) methods. QC ranges for iclaprim were those approved by CLSI and published in M100-S26 (2016). Iclaprim and comparator antibiotic MIC results were within the CLSI published ranges against E. coli ATCC 25922, E. faecalis ATCC 29212, E. faecalis ATCC 33186, H. influenzae ATCC 49247, K. pneumoniae ATCC 700603 (ESBL phenotype), S. aureus ATCC 29213, and S. pneumoniae ATCC 49619. Isolates were tested with MIC panels (ThermoFisher Scientific, Cleveland, Ohio, USA) of comparator antibiotics (daptomycin and levofloxacin).
(§3) Because bovine pulmonary surfactant can introduce cloudiness to the MIC testing media, antimicrobial growth inhibition was also evaluated using the colorimetric metabolic indicator resazurin (Camlab Ltd., Cambridge, UK). […] S. pneumoniae panels were omitted from resazurin analysis because the color change was obscured by the lysed horse blood present in the test medium. Growth inhibition was then evaluated as a visible color change from blue (no growth) to pink (robust growth) and recorded as a MICRZ value.
(§4) The MICs of iclaprim, levofloxacin, and daptomycin were determined against Gram-positive and Gram-negative isolates.
(§5) A new vial of bovine pulmonary surfactant (BPS; Survanta®; Abbott Laboratories, Columbus, Ohio) was utilized for each independent experiment. Each vial was mixed thoroughly and a 100 μL aliquot was spread on an agar plate, which was incubated overnight to confirm sterility. […] The concentration of surfactant was expressed in terms of percent volume of Survanta® suspension, which consisted of phospholipid (25 mg/mL) and surfactant proteins (<1 mg/mL) in 0.9% sodium chloride solution (Goerke, 1998). MICs of daptomycin were determined in CAMHB with the Ca^2+ content adjusted to 50 mg/L.

[5] = test system: K. pneumoniae; assay: MIC with/without bovine pulmonary surfactant, K. pneumoniae; format: cell-based, Klebsiella pneumoniae; conditions: for MIC: Klebsiella pneumoniae
Procedure: as §1, §2, §3, §4, §5

[6] = test system: common Gram-positive and Gram-negative respiratory bacteria; assay: Pulmonary surfactant interaction, overall effect on MIC and MICRZ; format: cell-based; conditions: 2.5% (v/v) BPS, all tested strains or isolates
Procedure: Antibacterial susceptibility testing was measured by JMI Labs (North Liberty, Iowa, USA). […] These clinical isolates were collected from US (n=4), Mexico (n=2), and Italy (n=1). Susceptibility testing was performed by broth microdilution in accordance with the Clinical and Laboratory and Standards Institute (CLSI) guidelines M07-A10 (2015) and the standard operating procedures at JMI laboratories. Minimum inhibitory concentrations (MICs) were based on CLSI criteria (2015). There are no published breakpoints for iclaprim. E. coli, K. pneumoniae, M. catarrhalis, E. faecalis, and S. aureus were tested in cation-adjusted Mueller-Hinton broth (CA-MHB). […]
Because bovine pulmonary surfactant can introduce cloudiness to the MIC testing media, antimicrobial growth inhibition was also evaluated using the colorimetric metabolic indicator resazurin (Camlab Ltd., Cambridge, UK). […] Growth inhibition was then evaluated as a visible color change from blue (no growth) to pink (robust growth) and recorded as a MICRZ value.
as §4
A new vial of bovine pulmonary surfactant (BPS; Survanta®; Abbott Laboratories, Columbus, Ohio) was utilized for each independent experiment. […] MICs of daptomycin were determined in CAMHB with the Ca^2+ content adjusted to 50 mg/L. […]

[7] = test system: nosocomial pneumonia suspected or confirmed to be caused by Gram-positive pathogens; conditions: cited from earlier work; for cure rate: intent-to-treat, test of cure visit
[8] = test system: S. pneumoniae; assay: MIC with/without bovine pulmonary surfactant, S. pneumoniae; format: cell-based; conditions: Streptococcus pneumoniae
Procedure: as §1, §2, §3, §4, §5

[9] = test system: S. aureus strain AH1252; assay: Neutropenic rat lung infection model; format: in vivo; conditions: iclaprim 80 mg/kg
Procedure: S. aureus strain AH1252, a thymidine knockout of the MRSA wild type AW6 strain, was utilized for this study. The bacterial strain was diluted in a 2% alginate buffer, which was added dropwise in a ratio of 1:5 into […] to form alginate beads. The alginate beads reduce the efficacy of bacterial clearance similar to that seen in the cystic fibrosis population. A 5.25×10^4 bacterial inoculum was administered to groups of 9 rats, intratracheally, with prepared alginate bacteria suspensions, under isoflurane anesthesia. […] Twelve hours after the last treatment, rats were euthanized and lungs collected for CFU determination.

[10] = test system: E. coli; assay: MIC with/without bovine pulmonary surfactant, E. coli; format: cell-based, Escherichia coli; conditions: E. coli ATCC 25922
Procedure: as §1, §2, §3, §4
A new vial of bovine pulmonary surfactant (BPS; Survanta®; Abbott Laboratories, Columbus, Ohio) was utilized for each independent experiment. […] MICs of daptomycin were determined in CAMHB with the Ca^2+ content adjusted to 50 mg/L.

[11] = SC/BID 3 days, vancomycin 50 mg/kg

Question: With `COc1cc(Cc2cnc(N)nc2N)c2c(c1OC)OC(C1CC1)C=C2` (racemic) [Iclaprim] as the compound, how does the “MIC90 of S. aureus” value [1] read?
Answer: 0.12 µg/mL

Question: What about the “iclaprim concentrations at which action potential duration was increased” value [2] of the same compound?
Answer: above 1 μM

Question: And the MIC ([3]; Staphylococcus aureus, MRSA, read-out: MIC to the majority of MRSA isolates)?
Answer: ≤ 1 µg/mL

Question: What about the MIC50 ([3]; Staphylococcus aureus, 59 MRSA isolates) of the same compound?
Answer: 0.25 µg/mL (≈ 0.705 µM)

Question: And the “MRSA isolates with iclaprim MIC ≤1 μg/ml” value ([3]; isolates nonsusceptible to linezolid (25 of 25))?
Answer: 100%

Question: And the “isolates with reduced susceptibility, MICs >8 μg/mL” value ([3]; nine of 59 MRSA isolates)?
Answer: 15.2%

Question: What about the “MICRZ, Resazurin: +BPS” value ([4]; E. faecalis ATCC 29212) of the same compound?
Answer: <=0.015 μg/mL

Question: And the “MICRZ, Resazurin” value ([4]; E. faecalis ATCC 29212)?
Answer: <=0.015 μg/mL

Question: What about the “MICRZ, Resazurin: +BPS” value ([4]; E. faecalis ATCC 33186) of the same compound?
Answer: <=0.015 μg/mL

Question: What about the “MICRZ, Resazurin” value ([4]; E. faecalis ATCC 33186) of the same compound?
Answer: 0.03 µg/mL

Question: And the “MICRZ, Resazurin: +BPS” value ([5]; K. pneumoniae ATCC 700603, 2.5% v/v BPS)?
Answer: 4 µg/mL

Question: What about the “MICRZ, Resazurin” value ([5]; K. pneumoniae ATCC 700603, no BPS) of the same compound?
Answer: 4 µg/mL

Question: What about the “MICRZ, Resazurin: +BPS” value ([5]; K. pneumoniae Clinical Isolate 858055, 2.5% v/v BPS) of the same compound?
Answer: 2 µg/mL

Question: And the “MICRZ, Resazurin” value ([5]; K. pneumoniae Clinical Isolate 858055, no BPS)?
Answer: 2 µg/mL

Question: What about the MIC ([5]; ATCC700603, K. pneumoniae ATCC 700603, 2.5% v/v BPS, read-out: MIC, CLSI: +BPS) of the same compound?
Answer: 4 µg/mL (≈ 11.3 µM)

Question: What about the MIC ([5]; ATCC700603, K. pneumoniae ATCC 700603, no BPS, read-out: MIC, CLSI) of the same compound?
Answer: 4 µg/mL (≈ 11.3 µM)

Question: What about the MIC ([5]; K. pneumoniae Clinical Isolate 858055, 2.5% v/v BPS, read-out: MIC, CLSI: +BPS) of the same compound?
Answer: 2 µg/mL (≈ 5.64 µM)

Question: And the MIC ([5]; K. pneumoniae Clinical Isolate 858055, no BPS, read-out: MIC, CLSI)?
Answer: 2 µg/mL (≈ 5.64 µM)

Question: What about the “effect of BPS on the MIC and MICRZ values” [6] of the same compound?
Answer: minimal or no effect

Question: And the “death rate within 28 days of the start of treatment” value ([7]; iclaprim q12h)?
Answer: 8.7%

Question: What about the cure rate ([7]; iclaprim 0.8 mg/kg IV q12h) of the same compound?
Answer: 73.9%

Question: And the cure rate ([7]; iclaprim 1.6 mg/kg IV q8h)?
Answer: 62.5%

Question: And the MIC ([8]; ATCC49619, S. pneumoniae ATCC 49619, 2.5% v/v BPS, read-out: MIC, CLSI: +BPS)?
Answer: 0.06 µg/mL (≈ 0.169 µM)

Question: And the MIC ([8]; ATCC49619, S. pneumoniae ATCC 49619, no BPS, read-out: MIC, CLSI)?
Answer: 0.06 µg/mL (≈ 0.169 µM)

Question: And the MIC ([8]; S. pneumoniae Clinical Isolate 818757, 2.5% v/v BPS, read-out: MIC, CLSI: +BPS)?
Answer: 0.06 µg/mL (≈ 0.169 µM)

Question: What about the MIC ([8]; S. pneumoniae Clinical Isolate 818757, no BPS, read-out: MIC, CLSI) of the same compound?
Answer: 0.06 µg/mL (≈ 0.169 µM)

Question: What about the MIC ([8]; S. pneumoniae Clinical Isolate 825175, 2.5% v/v BPS, read-out: MIC, CLSI: +BPS) of the same compound?
Answer: 0.12 µg/mL (≈ 0.339 µM)

Question: And the MIC ([8]; S. pneumoniae Clinical Isolate 825175, no BPS, read-out: MIC, CLSI)?
Answer: 0.12 µg/mL (≈ 0.339 µM)

Question: What about the “72 hour lungs (CFU/gram of lung) log10CFU/Lung” value [9, 11] of the same compound?
Answer: 3.34 log10CFU/Lung

Question: What about the “Change in CFUs from 2 hr.” value [9, 11] of the same compound?
Answer: 0.22 log 10 CFU

Question: And the “Survival >60 hrs” value ([9]; SC/BID 3 days, vancomycin 50 mg/kg, 9 rats)?
Answer: 9/9

Question: What about the “survival compared to the infection controls” value ([9]; vancomycin 50 mg/kg SC/BID) of the same compound?
Answer: increased survival

Question: And the “Change in CFUs from 72 hr.” value ([9]; vs 72 hr infection controls, vancomycin 50 mg/kg SC/BID)?
Answer: −5.34 log 10 CFU

Question: What about the “MICRZ, Resazurin: +BPS” value ([10]; 2.5% v/v BPS) of the same compound?
Answer: 1 µg/mL

Question: What about the “MICRZ, Resazurin” value ([10]; no BPS) of the same compound?
Answer: 1 µg/mL
